These are literature values, as cited in patent US20190224170A1, “THERAPIES AND METHODS TO TREAT INFLAMMATORY GASTROINTESTINAL DISEASES AND DISORDERS” (The Regents of the University of California, priority 2018, published 2019).

The data set concerns multiple sclerosis. The conditions noted are these: supplementation with high doses of biotin.

Turning to `O=C(O)CCCC[C@@H]1SC[C@@H]2NC(=O)N[C@@H]21` [biotin], the clinical response entry is listed as “distinctive positive clinical response”.
